The test system of the test is cortical neurons cultured with microglia. The test is described as follows: Neuron survival and neurite network (MAP-2) in cortical neurons after Aβ1-42 injury. The following applies: Aβ1-42 injury 72 h, co-administered; 10 nM to 100 nM. Type of test: cell-based, rat. As to the method: Rat cortical neurons cultured with microglia were cultured as described by Callizot et al. in J Neurosci Res. 2013, 91: 706-716 with modifications to include microglial cells. Pregnant female rats (Rats Wistar; Janvier Labs France) of 15 days of gestation were killed, after a deep anesthesia with CO2, by cervical dislocation. Then, fetuses were collected and immediately placed in ice-cold L15 Leibovitz medium with a 2% penicillin (10,000 U/ml) and streptomycin (10 mg/ml) solution (PS) and 1% bovine serum albumin (BSA). Cortexes were treated for 20 min at 37° C. with a trypsin-EDTA solution at a final concentration of 0.05% trypsin and 0.02% EDTA. The dissociation was stopped by addition of Dulbecco's modified Eagle's medium (DMEM) with 4.5 g/liter of glucose, containing DNAse I grade II (final concentration 0.5 mg/ml) and 10% fetal calf serum (FCS). Cells were mechanically dissociated by three forced passages through the tip of a 10-mL pipette. […] Viable cells were counted in a Neubauer cytometer, using the trypan blue exclusion test. […]
Cortical neurons were intoxicated with A3 solutions (see below) after 11 days of culture. […] This solution was gently agitated for 3 days at 37° C. in the dark and immediately used after being properly diluted in control medium to the concentrations used ([…] of Aβ1-42 preparation containing […] of Aβ oligomers (AβO) measured by WB). […]

With “N-(3-(4-(3-(diisobutylamino)propyl)piperazin-1-yl)propyl)-1H-benzo[d]imidazol-2-amine sesqui-succinate salt [sesqui-succinate salt Form 1]”, the “neurite network (MAP-2 staining)” value is given as “significantly longer” and the “neuron survival: total number of neurons (MAP-2 staining)” value is recorded as “neuroprotective”.

Source of the values: patent US20230391729A1, “SUCCINATE SALTS OF N-(3-(4-(3-(DIISOBUTYLAMINO)PROPYL)PIPERAZIN-1-YL)PROPYL)-1H-BENZO[D]IMIDAZOL-2-AMINE, PREPARATION THEREOF AND USE OF THE SAME” (ALZPROTECT, priority 2020, published 2023).
